Among the data in patent US12329739B2, “Isoflavonoid compounds and methods for the treatment of cancer” (Aardvark Therapeutics, Inc., priority 2010, dated 2025) are IC50 values, retold here.

The structures appear in SMILES notation.

As usually defined, the IC50 is the concentration that inhibits the measured activity by half. A lower IC50 goes with greater potency in that assay.

One experiment concerns PC3. Put plainly: MTT proliferation assay, PC3. It is filed as cell-based. The settings on record: Homo sapiens, PC-3, 120 h, Prostate, PC3, 120 h of exposure. As for the experimental part: (§1) Proliferation Assays. IC50 values were determined for each cell line. Cells were seeded in 96-well plates at an appropriate cell density as determined from growth kinetics analysis and cultured for 5 days in the absence and presence of the test compounds. Cell proliferation was assessed after the addition of 20 μl of 3-4,5 dimethylthiazol-2,5-diphenyl tetrazolium bromide (MTT, 5 mg/ml in PBS, Sigma) for 5 hrs at 37° C. according to manufacturer's instructions. IC50 values were calculated from semi-log plots of % of control proliferation on the y-axis against log dose on the x-axis.
(§2) Anti-proliferative Activity of Isoflavonoid Derivatives. IC50 values were determined for each cell line after 120 h of exposure.

For the next experiment, the system named is DU145. Put plainly: MTT proliferation assay, DU145. It is filed as cell-based. The note with it: Homo sapiens, DU-145; Prostate, DU145, 120 h of exposure. As to the method:
as §1, §2

The next experiment relates to LNCaP. Kind of experiment: MTT proliferation assay, LNCaP. The note with it: Homo sapiens, Prostate, 120 h of exposure. It is filed as cell-based. As for the experimental part:
as §1, §2

The next experiment deals with COLO205. Kind of experiment: MTT proliferation assay, COLO205. The settings on record: Homo sapiens, COLO 205; CRC, COLO205, 120 h of exposure. It is filed as cell-based, human. As for the experimental part: (§3) The human non-small cell lung adenocarcinoma lines NCI-H1299 (CRL-5803), NCI-H460 (HTB-177), NCI-H358 (CRL-5807), NCI-H838 (CRL-5844), the human colorectal adenocarcinoma lines COLO 205 (CCL-222), HCT-15 (CCL-225) and the human gastric cancer cell line NCI-N87 (CRL-5822) were cultured in RPMI 1640 medium containing 2 g/L sodium bicarbonate (Hyclone/Invitrogen) supplemented with 2 mM L-glutamine (Gibco) 1 mM sodium pyruvate (Sigma), 10 mM HEPES (Sigma) and 4500 mg/L glucose (Sigma). The human non-small cell lung adenocarcinoma line NCI-H2126 (CCL-256) was cultured in DMEM:F12(1:1) (Hyclone/Invitrogen) containing 2.5 mM L-glutamine 2.4 g/L sodium bicarbonate supplemented with 5% fetal bovine serum (FBS), an additional 2 mM L-glutamine, 15 mM HEPES, 0.005 mg/ml insulin (Sigma), 0.01 mg/ml transferrin (Sigma), 30 nM sodium selenite (Sigma), 10 nM hydrocortisone (Sigma) and 10 nM beta-estradiol (Sigma). The human colorectal adenocarcinoma line HT-29 (HTB-38) and the human gastric cancer cell lines OE-19 (#96071721) and MKN1 (JCRB0252) were cultured in RPMI 1640 media supplemented with 2 mM L-glutamine.
as §1, §2
(In general: Tetrazolium assays rely on reduction of a dye to a coloured formazan, in cell work by metabolically active cells.)

Another experiment concerns A2780. Put plainly: MTT proliferation assay, A2780. The experiment is classed as cell-based. The note with it: Homo sapiens, A2780, 120 h, Ovarian, A2780, 120 h of exposure. As for the experimental part:
as §1, §2

The subject of the next experiment is R-182. Kind of experiment: MTT proliferation assay, R-182. It is filed as cell-based. The settings on record: Ovarian, R-182, 120 h of exposure.
Excerpt: Tissue culture. The multidrug resistant primary epithelial ovarian cancer cell line R-182 TARA was a gift from Dr. Gil Mor (Yale University, New Haven, CT, USA). This cell line was derived by explant from ovarian tumors and cultured as previously described. All other cell lines were purchased from American Type Culture Collection (ATCC, Manassas, VA, USA) with the exception of MKN1, HuH-7, JHH-1, which were purchased from the Japanese Collection of Research Bioresources (JCRB, Osaka, Japan), and OE19 which was purchased from the European Collection of Cell Cultures (ECACC, Salisbury, UK).
as §1, §2

A further experiment relates to CP70. Kind of experiment: MTT proliferation assay, CP70. The experiment is classed as cell-based. The settings on record: 120 h, Ovarian, CP70, 120 h of exposure. As for the experimental part:
as §1, §2

In a further experiment the test system is NCI-H460. Kind of experiment: MTT proliferation assay, NCI-H460. The experiment is classed as cell-based, human. The note with it: Homo sapiens; NSCLC, NCI-H460, 120 h of exposure. As for the experimental part: as §3, §1, §2
The next experiment deals with A549. Kind of experiment: MTT proliferation assay, A549. The experiment is classed as cell-based. The note with it: Homo sapiens; NSCLC, A549, 120 h of exposure. As to the method:
as §1, §2

A further experiment relates to CALU3. Put plainly: MTT proliferation assay, CALU3. It is filed as cell-based. The note with it: Homo sapiens, Calu-3; NSCLC, CALU3, 120 h of exposure. As for the experimental part: as §1, §2
A further experiment has as its system HepG2. Kind of experiment: MTT proliferation assay, HepG2. The experiment is classed as cell-based, human. The settings on record: Homo sapiens; Liver, HepG2, 120 h of exposure. As for the experimental part:
(§4) The human hepatocellular carcinoma lines HepG2 (HB-8065), SK-HEP-1 (HTB-52) and the normal human lung fibroblast line IMR-90 (CCL-186) were cultured in Minimum Essential Eagles Medium containing 2 mM L-glutamine, 2.2 g/L sodium bicarbonate, supplemented with 1 mM sodium pyruvate and 0.1 mM non-essential amino acids. The human hepatocellular carcinoma line JHH-1 (JCRB1062) was cultured in Williams E Medium (Invitrogen) containing 2.2 g/L sodium bicarbonate, supplemented with 2 mM L-glutamine. The hepatocellular carcinoma line HuH-7 (JCRB0403) was cultured in DMEM, supplemented with 2 mM L-glutamine.
as §1, §2

The test system of the next experiment is SK-Hep-1. Kind of experiment: MTT proliferation assay, SK-Hep-1. The experiment is classed as cell-based, human. The settings on record: Homo sapiens, SK-HEP1; Liver, SK-Hep-1, 120 h of exposure. As for the experimental part:
as §4, §1, §2

Another experiment concerns HuH-7. Kind of experiment: MTT proliferation assay, HuH-7. The experiment is classed as cell-based, human. The note with it: Homo sapiens; Liver, HuH-7, 120 h of exposure. As to the method:
as §4, §1, §2

A further experiment has as its system A2058. Kind of experiment: MTT proliferation assay, A2058. It is filed as cell-based. The note with it: Homo sapiens, A2058, 120 h, Melanoma, A2058, 120 h of exposure. As for the experimental part:
as §1, §2

A further experiment has as its system 4405. Put plainly: MTT proliferation assay, 4405. The experiment is classed as cell-based. The note with it: Melanoma, 4405, 120 h of exposure. As for the experimental part:
as §1, §2

In another experiment the test system is MM200. Kind of experiment: MTT proliferation assay, MM200. The settings on record: Melanoma, MM200, 120 h of exposure. It is filed as cell-based. As for the experimental part:
as §1, §2

In a further experiment the test system is MDA-MB-468. Kind of experiment: MTT proliferation assay, MDA-MB-468. The experiment is classed as cell-based, human. The note with it: Homo sapiens, MDA-MB-468, 120 h, Breast, MDA-MB-468, 120 h of exposure. As to the method:
The human gastric cancer cell line AGS (CRL-1739) was cultured in Hams F-12K (Kaighans modification) medium containing 2 mM L-glutamine, 2.5 g/L sodium bicarbonate and 2 mM sodium pyruvate. The human breast adenocarcinoma line MDA-MB-468 (HTB-132) was cultured in DMEM:F12 (1:1) medium containing 2.5 mM L-glutamine, 2.4 g/L sodium bicarbonate, supplemented with an additional 2 mM L-glutamine.
as §1, §2

In another experiment the test system is SKBR-3. Put plainly: MTT proliferation assay, SKBR-3. The note with it: Homo sapiens, SK-BR-3, 120 h, Breast, SKBR-3, 120 h of exposure. The experiment is classed as cell-based, human. As to the method:
The human colorectal adenocarcinoma line HCT-116 (CCL-247) and the human breast adenocarcinoma line SK-BR-3 (HTB-30) were cultured in McCoy's 5a Medium (Invitrogen) containing 1.5 mM L-glutamine and 2.2 g/L sodium bicarbonate. The human colorectal adenocarcinoma line SW620 (CCL-227) was cultured in Leibovitz's L-15 Medium (Invitrogen) containing 2.05 mM L-glutamine.
as §1, §2

Regarding `Cc1c(O)ccc2c1OCC(c1ccc(O)cc1)C2c1ccc(O)cc1` (stereo not drawn) [Compound 5, 3-(4-hydroxyphenyl)-4-(4-hydroxyphenyl)-8-methylchroman-7-ol], the IC50 with PC3 lay in the range of 150 to 500 nM; with DU145, 150 to 500 nM; in the experiment with LNCaP it was 150 to 500 nM; with COLO205, 1600 to 10000 nM; in the experiment on A2780, 150 to 500 nM; in the experiment with R-182, 150 to 500 nM. For the same compound, the IC50 is ≤ 150 nM in the experiment with CP70; 150 to 500 nM in the experiment with NCI-H460; 150 to 500 nM in the experiment on A549; ≤ 150 nM in the experiment on CALU3; ≤ 150 nM with HepG2; 150 to 500 nM in the experiment on SK-Hep-1. In addition, the IC50 with HuH-7 was 150 to 500 nM; in the experiment with A2058, ≤ 150 nM; in the experiment on 4405, 150 to 500 nM; in the experiment with MM200, 150 to 500 nM; in the experiment with MDA-MB-468, 150 to 500 nM; in the experiment on SKBR-3 it was ≤ 150 nM.
`Cc1cc(C2c3ccc(O)c(C)c3OCC2c2ccc(O)cc2)ccc1O` (stereo not drawn) [Compound 6, 3-(4-hydroxyphenyl)-4-(4-hydroxy-3-methylphenyl)-8-methylchroman-7-ol]: the IC50 with PC3 lay in the range of 150 to 500 nM; with DU145, 150 to 500 nM; with LNCaP it was 510 to 1500 nM; with COLO205 it was 1600 to 10000 nM; in the experiment with A2780 it was 150 to 500 nM; in the experiment on R-182 it was 150 to 500 nM. Further, the IC50 in the experiment on CP70 is 510 to 1500 nM; in the experiment with NCI-H460 it was 150 to 500 nM; in the experiment on A549, 510 to 1500 nM; with CALU3, 150 to 500 nM; with HepG2, 150 to 500 nM; in the experiment with SK-Hep-1 it was 150 to 500 nM. Moreover, the IC50 was 150 to 500 nM in the experiment with HuH-7; 150 to 500 nM in the experiment on A2058; 150 to 500 nM with 4405; 510 to 1500 nM with MM200; 150 to 500 nM with MDA-MB-468; ≤ 150 nM in the experiment on SKBR-3.
As to `COc1ccc(C2c3ccc(O)c(C)c3OCC2c2ccc(O)cc2)cc1C` (stereo not drawn) [Compound 7, 3-(4-hydroxyphenyl)-4-(4-methoxy-3-methylphenyl)-8-methylchroman-7-ol], the IC50 was 1600 to 10000 nM in the experiment with PC3; 1600 to 10000 nM in the experiment with DU145; 1600 to 10000 nM with LNCaP; ≥ 10000 nM in the experiment on COLO205; 1600 to 10000 nM with A2780; 1600 to 10000 nM with R-182. Besides, the IC50 in the experiment with CP70, with NCI-H460, in the experiment with A549, in the experiment on CALU3, with HepG2 and in the experiment with SK-Hep-1 was 1600 to 10000 nM throughout. The IC50 with HuH-7 was 1600 to 10000 nM; with A2058, 1600 to 10000 nM; in the experiment with 4405, 1600 to 10000 nM; in the experiment with MM200, ≥ 10000 nM; with MDA-MB-468, 1600 to 10000 nM; with SKBR-3, 510 to 1500 nM.
For the compound `Cc1c(O)ccc2c1OC[C@@H](c1ccc(O)cc1)[C@H]2c1ccc(O)cc1` [d-5, d-cis-3-(4-hydroxyphenyl)-4-(4-hydroxyphenyl)-8-methylchroman-7-ol], the IC50 with PC3 was ≤ 150 nM; in the experiment on DU145, ≤ 150 nM; with LNCaP, ≤ 150 nM; with COLO205, 510 to 1500 nM; in the experiment with A2780 it was ≤ 150 nM; in the experiment on R-182 it was ≤ 150 nM. The IC50 is ≤ 150 nM in the experiment with CP70; ≤ 150 nM in the experiment on NCI-H460; 150 to 500 nM in the experiment with A549; ≤ 150 nM in the experiment with CALU3; ≤ 150 nM in the experiment on HepG2; ≤ 150 nM in the experiment with SK-Hep-1. Further, the IC50 in the experiment on HuH-7 is ≤ 150 nM; in the experiment on A2058, ≤ 150 nM; in the experiment on 4405, ≤ 150 nM; with MM200, 150 to 500 nM; in the experiment on MDA-MB-468 it was ≤ 150 nM; in the experiment with SKBR-3, ≤ 150 nM.
As to `Cc1c(O)ccc2c1OC[C@H](c1ccc(O)cc1)[C@@H]2c1ccc(O)cc1` [l-5, l-cis-3-(4-hydroxyphenyl)-4-(4-hydroxyphenyl)-8-methylchroman-7-ol], the IC50 in the experiment with PC3, in the experiment with DU145, with LNCaP, in the experiment with COLO205, in the experiment on A2780 and in the experiment on R-182 was ≥ 10000 nM each time. The IC50 with CP70, in the experiment with NCI-H460, in the experiment on A549, in the experiment with CALU3, in the experiment on HepG2 and in the experiment on SK-Hep-1 was ≥ 10000 nM each time. Besides, the half-inhibitory concentration (IC50) in the experiment with HuH-7, with A2058, in the experiment on 4405, with MM200, in the experiment with MDA-MB-468 and in the experiment with SKBR-3 was ≥ 10000 nM in each case.
